Reference: ChEMBL document CHEMBL1201862, “PubChem BioAssay data set” (2004)
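Method: 48-hour compound exposure of cells in 96-well plates, five concentrations, linear interpolation of endpoints. GI50 = concentration required for 50% inhibition of growth.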 Active and inactive are the calls of the source. No stated cut-off is given here; in the data, active = GI50 up to about 1.1 µM and inactive = higher.

Experiments:
Test in all cases: inhibition of tumour cell growth, NCI panel, 48 h
[1] = tested on: A498
[2] = tested on: CCRF-CEM
[3] = tested on: EKVX
[4] = tested on: HOP-62
[5] = tested on: K562
[6] = tested on: KM12
[7] = tested on: M14
[8] = tested on: MDA-MB-231
[9] = tested on: NCI-H23
[10] = tested on: NCI-H522
[11] = tested on: OVCAR-4
[12] = tested on: OVCAR-5
[13] = tested on: RXF 393
[14] = tested on: SF-268
[15] = tested on: SK-MEL-28
[16] = tested on: SNB-75
[17] = tested on: SR
[18] = tested on: U-251
[19] = tested on: UACC-62
[20] = tested on: UO-31

For `O=C(Nc1cc(Cl)c(I)c(Cl)c1)C(F)(F)F`, the GI50 [1] was 22.9 µM (inactive), the GI50 [2] was 24.8 µM (inactive) and the GI50 [3] was 18.3 µM (inactive). For the same compound, the GI50 [4] was 31.2 µM (inactive), the GI50 [5] was 28.2 µM (inactive) and the GI50 [6] was 27.5 µM (inactive). For the same compound, the GI50 [7] was 23.2 µM (inactive), the GI50 [8] was 30.1 µM (inactive) and the GI50 [9] was 26.2 µM (inactive). For the same compound, the GI50 [10] was 21.7 µM (inactive), the GI50 [11] was 31.1 µM (inactive) and the GI50 [12] was 22.8 µM (inactive). For the same compound, the GI50 [13] was 16.7 µM (inactive), the GI50 [14] was 27.1 µM (inactive) and the GI50 [15] was 25.2 µM (inactive). The GI50 [16] was 20.8 µM (inactive), the GI50 [17] was 30.8 µM (inactive) and the GI50 [18] was 40.4 µM (inactive). For the same compound, the GI50 [19] was 20.3 µM (inactive) and the GI50 [20] was 23.6 µM (inactive).
With `CC/C(N)=N\NC(=O)OC(C)(C)C` the GI50 [1] was > 100 µM (inactive), the GI50 [2] was > 100 µM (inactive) and the GI50 [3] was > 100 µM (inactive). For the same compound, the GI50 [4] was > 100 µM (inactive), the GI50 [5] was > 100 µM (inactive) and the GI50 [6] was > 100 µM (inactive). For the same compound, the GI50 [7] was > 100 µM (inactive), the GI50 [8] was > 100 µM (inactive) and the GI50 [9] was > 100 µM (inactive). For the same compound, the GI50 [10] was > 100 µM (inactive), the GI50 [11] was > 100 µM (inactive) and the GI50 [12] was > 100 µM (inactive). For the same compound, the GI50 [13] was > 100 µM (inactive), the GI50 [14] was > 100 µM (inactive) and the GI50 [15] was > 100 µM (inactive). The GI50 [16] was > 100 µM (inactive), the GI50 [17] was > 100 µM (inactive) and the GI50 [18] was > 100 µM (inactive). For the same compound, the GI50 [19] was > 100 µM (inactive) and the GI50 [20] was > 100 µM (inactive).
`COc1ccc2[nH]c3c(C)c4ccnc(NCCCN(C)CCCNc5ccc([N+](=O)[O-])c6[nH]c7ccccc7c(=O)c56)c4c(C)c3c2c1` was tested, and the GI50 [1] was 0.841 µM (active), the GI50 [2] was 0.212 µM (active) and the GI50 [3] was 0.271 µM (active). The GI50 [4] was 0.239 µM (active), the GI50 [5] was 0.00652 µM (active) and the GI50 [6] was 0.301 µM (active). The GI50 [7] was 0.422 µM (active), the GI50 [8] was 0.621 µM (active) and the GI50 [9] was 0.575 µM (active). The GI50 [10] was 0.0235 µM (active), the GI50 [11] was 0.132 µM (active) and the GI50 [12] was 0.607 µM (active). The GI50 [13] was 0.0396 µM (active), the GI50 [14] was 0.52 µM (active) and the GI50 [15] was 0.887 µM (active). The GI50 [16] was 0.743 µM (active), the GI50 [17] was 0.0114 µM (active) and the GI50 [18] was 0.0887 µM (active). The GI50 [19] was 0.82 µM (active) and the GI50 [20] was 0.59 µM (active).
With `COC(=O)Cc1ccc2c(c1)Sc1ccc(CC(=O)OC)cc1N2C` the GI50 [1] was 40.6 µM (inactive), the GI50 [2] was 22 µM (inactive) and the GI50 [3] was 42 µM (inactive). For the same compound, the GI50 [4] was 27.4 µM (inactive), the GI50 [5] was 6.75 µM (inactive) and the GI50 [6] was 8.07 µM (inactive). For the same compound, the GI50 [7] was 30.3 µM (inactive), the GI50 [8] was 13.4 µM (inactive) and the GI50 [9] was 28.6 µM (inactive). The GI50 [10] was 9.75 µM (inactive), the GI50 [11] was 28.3 µM (inactive) and the GI50 [12] was > 65.5 µM (inactive). For the same compound, the GI50 [13] was 25.1 µM (inactive), the GI50 [14] was 38.3 µM (inactive) and the GI50 [15] was 38.3 µM (inactive). For the same compound, the GI50 [16] was > 47.2 µM (inactive), the GI50 [17] was 14.4 µM (inactive) and the GI50 [18] was 19.4 µM (inactive). The GI50 [19] was 23.9 µM (inactive) and the GI50 [20] was 16.8 µM (inactive).
With `COc1ccc(C(=O)/C=C/c2ccc(Oc3cc(C(=O)/C=C/c4ccc(O)cc4)c(O)cc3OC)cc2)c(O)c1` [RHUSCHALCONE I] the GI50 [1] was 1.67 µM (inactive), the GI50 [2] was 2.27 µM (inactive) and the GI50 [3] was 4.01 µM (inactive). The GI50 [4] was 4.83 µM (inactive), the GI50 [5] was 3.66 µM (inactive) and the GI50 [6] was 2.65 µM (inactive). The GI50 [7] was 4.74 µM (inactive), the GI50 [8] was 3.63 µM (inactive) and the GI50 [9] was 2.72 µM (inactive). The GI50 [10] was 2.81 µM (inactive), the GI50 [11] was 3.23 µM (inactive) and the GI50 [12] was 4.19 µM (inactive). The GI50 [13] was 2.56 µM (inactive), the GI50 [14] was 5.19 µM (inactive) and the GI50 [15] was 2.74 µM (inactive). The GI50 [16] was 5.27 µM (inactive), the GI50 [17] was 1.92 µM (inactive) and the GI50 [18] was 3.79 µM (inactive). The GI50 [19] was 3.27 µM (inactive) and the GI50 [20] was 3.59 µM (inactive).
For `CCCC(=O)NC(Nc1ccc(S(=O)(=O)Nc2ccc(OC)nn2)cc1)(C(F)(F)F)C(F)(F)F`, the GI50 [1] was 87.9 µM (inactive), the GI50 [2] was > 100 µM (inactive) and the GI50 [3] was > 100 µM (inactive). The GI50 [4] was > 100 µM (inactive), the GI50 [5] was > 100 µM (inactive) and the GI50 [6] was > 100 µM (inactive). The GI50 [7] was > 100 µM (inactive), the GI50 [8] was > 100 µM (inactive) and the GI50 [9] was > 100 µM (inactive). The GI50 [10] was > 100 µM (inactive), the GI50 [11] was > 100 µM (inactive) and the GI50 [12] was > 100 µM (inactive). The GI50 [13] was > 100 µM (inactive), the GI50 [14] was > 100 µM (inactive) and the GI50 [15] was > 100 µM (inactive). For the same compound, the GI50 [16] was > 100 µM (inactive), the GI50 [17] was > 100 µM (inactive) and the GI50 [18] was > 100 µM (inactive). For the same compound, the GI50 [19] was > 100 µM (inactive) and the GI50 [20] was > 100 µM (inactive).
